Read-outs that look alike come from different tables or passages of the source.
Key:
[1] = Penetration test using a Strat-M membrane in a Franz Cell, UPLC analysis
Procedure: In this study, exemplary actives with different hydrophilicity value were chosen. P is the partition coefficient, where a smaller P (more negative log P) indicates greater hydrophilicity. A penetration test was performed using a Strat-M® membrane, and the collected sample was then analyzed by Ultra-Performance Liquid Chromatography (UPLC). In the receptor chamber of a Franz Cell, 5.00 mL of the incubation medium was added as the collection phase. A Strat-M® membrane was loaded on top of the receptor chamber. The donor chamber was then added on top of the Strat-M® membrane, 0.80 mL of the crème was added to the donor chamber. […] At the end of that time period, 1.00 mL of the collection phase was withdrawn from the sampling port as the sample solution. The sample solution was filtered through a 0.45 micrometer (μm) syringe filter and then added into a 2.0 milliliter (mL) High Performance Liquid Chromatography (HPLC) vial. ACQUITY H UPLC from the Waters Corporation was used to analyze the collected samples from the Franz Cell study.
The amount of actives in the collection phase were analyzed by UPLC following the method described above.

[2] = cited from earlier work

## O=C1O[C@H]([C@@H](O)CO)C(O)=C1O[C@H]1O[C@H](CO)[C@@H](O)[C@H](O)[C@H]1O [ascorbyl glucoside]
[1]
  effect of inclusion of the copolymer blend on delivery of the active: enhanced the delivery
[2]
  Active Log P: −4.79

## NC(=O)c1cccnc1 [niacinamide]
[1]; with versus without copolymer blend
  effect of inclusion of the copolymer blend on delivery of the active: did not enhance the delivery

## Cn1c(=O)c2c(ncn2C)n(C)c1=O [caffeine]
[1]; Franz Cell, room temperature, 48 hours
  % of Penetration: greater than 100%
